# Experimental data: PubChem BioAssay AID588530 (Broad Institute, 2011)
# Active and inactive are the calls of the source.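 The calls were made as follows: active = Alamar Blue signal falls with dose, AC50 no more than twice the top valid dose; inconclusive = flat curve near half-strength inhibition, or poor fit; inactive = the rest.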
# Test system: not listed separately
# Assay: antifungal potency against resistant Candida albicans – CaCi-17 isolate, Alamar Blue, cherry-pick retest, confirmation (AID 588530)
# Settings: C. albicans CaCi-17 growth, Alamar Blue fluorescence, 48 h; at 26 µM (top of the series)
row,SMILES,"activity change, negative = inhibition"
1,O=[N+]([O-])c1ccc(O)c(/C=N/Nc2ccc(Cl)nn2)c1,-23.4% (inactive)
2,Cc1ccc(C(=O)c2coc3c2C(=O)C(=O)c2ccccc2-3)cc1,7.03% (inactive)

# Test system: C. albicans CaCi-17 growth, Alamar Blue fluorescence, 48 h
# Assay: as above
# Settings: not given
row,SMILES,AC50
1,C/C(=N\NC(=O)c1cc2ccccc2cc1O)c1ccccn1,5.02 µM
2,COc1cccc(/C=N/Nc2ncnc3scc(-c4ccccc4)c23)c1O,12.5 µM
3,COc1cccc(N=Nc2ccc(O)c3ncccc23)c1,3.91 µM
4,CCN1/C(=C/C=C/c2oc3ccc(-c4ccccc4)cc3[n+]2CC)Oc2ccc(-c3ccccc3)cc21,2.43 µM
5,Oc1c(C(Nc2nc3ccccc3s2)c2ccco2)ccc2cccnc12 (centres undefined),3.97 µM
6,O=C(N/N=C/c1cc2c3c(c1O)CCCN3CCC2)c1ccccc1O,4.28 µM
7,CCCCC(=O)NC(c1ccc(N(CC)CC)cc1)c1ccc2cccnc2c1O (centres undefined),3.73 µM
8,Oc1ccc(N=Nc2ccc3c(c2)OCCO3)c2ncccc12,> 52 µM (inactive)
9,C=CCNC(=S)N/N=C(\C)c1ccccn1,8.96 µM
10,CN1CCN(C(c2ccc(C(F)(F)F)cc2)c2cc(Cl)c3cccnc3c2O)CC1 (centres undefined),6.34 µM
11,O=C(N/N=C/c1c(O)ccc2ccccc12)c1cccc(C(F)(F)F)c1,> 52 µM (inactive)
12,O=Nc1c(-c2cccc([N+](=O)[O-])c2)nc2ncccn12,4.77 µM
13,Oc1ccc(N=Nc2ccc3c(c2)OCCO3)c2cccnc12,10.8 µM
14,COc1ccc(C)cc1N=Nc1ccc(O)c2ncccc12,2.99 µM
15,CCN(CC)S(=O)(=O)c1cc(OC)ccc1N=Nc1ccc(O)c2ncccc12,15.3 µM
16,O=[N+]([O-])c1cc(CN2CCN(c3ccccc3)CC2)c(O)c2ncccc12,10.6 µM

row,SMILES,AC50
1,Cc1cc(NC(c2ccc(Cl)cc2)c2ccc3cccnc3c2O)no1 (centres undefined),2.49 µM
2,Oc1c(C(Nc2nccs2)c2ccc(C(F)(F)F)cc2)ccc2cccnc12 (centres undefined),4.11 µM
3,COc1cccc(N=Nc2ccc3cccnc3c2O)c1,5.37 µM
4,C(C#CCCCCCCCCC[n+]1ccccc1)#CCCCCCCCCC[n+]1ccccc1,1.52 µM
5,CCOC(=O)N1C(=O)C2(CCCCC2)N(c2ccc(C)cc2)C1=S,1.3 µM
6,CCOc1ccc(N=Nc2ccc(O)c3ncccc23)cc1,11.6 µM
7,Oc1c(CN2CCN(c3ccc(F)cc3)CC2)cc(Cl)c2cccnc12,7.42 µM
8,CN1CCN(C(c2ccc(C(F)(F)F)cc2)c2ccc3cccnc3c2O)CC1 (centres undefined),8.86 µM
9,CCCCC(=O)NC(c1ccco1)c1cc(Cl)c2cccnc2c1O (centres undefined),24.9 µM
10,Oc1c(C(c2ccc(Cl)cc2)N2CCCC2)cc(Cl)c2cccnc12 (centres undefined),7.68 µM
11,Oc1c(CN2CCN(c3ccccc3)CC2)cc(Br)c2cccnc12,> 52 µM (inactive)
12,CCCCCCC[n+]1ccc(-c2cc[n+](CCCCCCC)cc2)cc1,13.4 µM
13,O=c1ccc(N=Nc2ccccc2)ccc1O,4.73 µM
14,O=C(Oc1c(Cl)cc(Cl)c2cccnc12)c1ccco1,1.71 µM
15,O=Cc1ccc(O)c2ncccc12,13.7 µM
16,O=C(Oc1c(Cl)cc(Cl)c2cccnc12)c1cccs1,3.29 µM
